The conditions of test [1]: in vivo; cited from earlier work.
The conditions of test [2]: NOD mouse model of type I diabetes; cited from earlier work.
The conditions of test [3]: in vivo; cited from earlier work. The source holds these as a separate data set.
The next test has as its target T1, JAK2 (Homo sapiens, UniProt O60674).
T1 construct: endogenous in cells; host or cells: Molt4 (ATCC CRL-1582) and Ramos (ATCC CRL-1596) cell lysate; mixed Molt4/Ramos lysate 1:2
Kind of test: Kinobeads assay, JAK2 (competition binding in cell lysate, dot blot detection). The conditions noted are these: mixed Molt4/Ramos lysate. The essentials:
(§1)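 Competition binding of compound against immobilized aminopyrido-pyrimidine affinity beads in mixed Molt4/Ramos lysate (1:2, 10 mg/mL protein), 3 h in cold room. Bead-bound JAK2 or JAK3 eluted and quantified by antibody dot blot with infrared detection; IC50 from 9-step 1:3 dose-response curves.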

The next test addresses T2, JAK3 (Homo sapiens, UniProt P52333).
T2 construct: endogenous in cells; host or cells: Molt4 (ATCC CRL-1582) and Ramos (ATCC CRL-1596) cell lysate; mixed Molt4/Ramos lysate 1:2
T2 sequence (P52333 1-1124): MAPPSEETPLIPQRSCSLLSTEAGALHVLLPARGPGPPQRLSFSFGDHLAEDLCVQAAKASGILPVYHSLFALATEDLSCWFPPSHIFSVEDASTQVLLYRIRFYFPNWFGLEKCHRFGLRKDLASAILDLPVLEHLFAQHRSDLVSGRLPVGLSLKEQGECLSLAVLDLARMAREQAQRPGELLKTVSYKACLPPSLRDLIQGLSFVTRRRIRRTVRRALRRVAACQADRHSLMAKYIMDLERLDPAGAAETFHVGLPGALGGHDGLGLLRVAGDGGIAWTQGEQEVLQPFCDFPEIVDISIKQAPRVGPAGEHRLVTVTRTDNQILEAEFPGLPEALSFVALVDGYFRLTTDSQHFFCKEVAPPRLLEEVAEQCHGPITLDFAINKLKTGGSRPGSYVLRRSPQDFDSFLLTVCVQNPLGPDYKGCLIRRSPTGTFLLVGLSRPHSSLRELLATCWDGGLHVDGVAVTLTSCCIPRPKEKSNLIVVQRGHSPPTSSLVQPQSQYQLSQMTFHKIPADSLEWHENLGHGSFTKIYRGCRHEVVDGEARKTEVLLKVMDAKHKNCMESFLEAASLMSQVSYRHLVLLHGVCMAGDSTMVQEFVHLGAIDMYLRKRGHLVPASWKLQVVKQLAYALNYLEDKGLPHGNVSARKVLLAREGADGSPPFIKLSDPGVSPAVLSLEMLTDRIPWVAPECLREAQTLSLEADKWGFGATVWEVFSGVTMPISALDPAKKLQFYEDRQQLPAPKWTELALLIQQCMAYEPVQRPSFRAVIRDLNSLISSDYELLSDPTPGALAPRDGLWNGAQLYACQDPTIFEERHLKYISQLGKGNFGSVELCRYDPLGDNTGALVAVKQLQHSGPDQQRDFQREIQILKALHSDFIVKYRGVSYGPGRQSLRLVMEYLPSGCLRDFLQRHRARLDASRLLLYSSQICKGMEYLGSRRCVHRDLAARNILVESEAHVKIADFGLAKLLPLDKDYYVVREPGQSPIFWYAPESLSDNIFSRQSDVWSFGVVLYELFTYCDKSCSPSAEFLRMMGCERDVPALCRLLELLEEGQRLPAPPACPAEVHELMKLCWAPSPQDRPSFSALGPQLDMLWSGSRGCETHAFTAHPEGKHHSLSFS
As to the kind of experiment: Kinobeads assay, JAK3 (competition binding in cell lysate, dot blot detection). The conditions noted are these: mixed Molt4/Ramos lysate. The procedure, abridged:
as §1

We go through 8 compounds from patent US20130131043A1, “PYRAZOLE COMPOUNDS AS JAK INHIBITORS” (priority 2010, published 2013).

As usually defined, the IC50 is the midpoint of a concentration-inhibition curve. Read a high IC50 as a need for much substance.

T1 sequence (O60674 whole entry): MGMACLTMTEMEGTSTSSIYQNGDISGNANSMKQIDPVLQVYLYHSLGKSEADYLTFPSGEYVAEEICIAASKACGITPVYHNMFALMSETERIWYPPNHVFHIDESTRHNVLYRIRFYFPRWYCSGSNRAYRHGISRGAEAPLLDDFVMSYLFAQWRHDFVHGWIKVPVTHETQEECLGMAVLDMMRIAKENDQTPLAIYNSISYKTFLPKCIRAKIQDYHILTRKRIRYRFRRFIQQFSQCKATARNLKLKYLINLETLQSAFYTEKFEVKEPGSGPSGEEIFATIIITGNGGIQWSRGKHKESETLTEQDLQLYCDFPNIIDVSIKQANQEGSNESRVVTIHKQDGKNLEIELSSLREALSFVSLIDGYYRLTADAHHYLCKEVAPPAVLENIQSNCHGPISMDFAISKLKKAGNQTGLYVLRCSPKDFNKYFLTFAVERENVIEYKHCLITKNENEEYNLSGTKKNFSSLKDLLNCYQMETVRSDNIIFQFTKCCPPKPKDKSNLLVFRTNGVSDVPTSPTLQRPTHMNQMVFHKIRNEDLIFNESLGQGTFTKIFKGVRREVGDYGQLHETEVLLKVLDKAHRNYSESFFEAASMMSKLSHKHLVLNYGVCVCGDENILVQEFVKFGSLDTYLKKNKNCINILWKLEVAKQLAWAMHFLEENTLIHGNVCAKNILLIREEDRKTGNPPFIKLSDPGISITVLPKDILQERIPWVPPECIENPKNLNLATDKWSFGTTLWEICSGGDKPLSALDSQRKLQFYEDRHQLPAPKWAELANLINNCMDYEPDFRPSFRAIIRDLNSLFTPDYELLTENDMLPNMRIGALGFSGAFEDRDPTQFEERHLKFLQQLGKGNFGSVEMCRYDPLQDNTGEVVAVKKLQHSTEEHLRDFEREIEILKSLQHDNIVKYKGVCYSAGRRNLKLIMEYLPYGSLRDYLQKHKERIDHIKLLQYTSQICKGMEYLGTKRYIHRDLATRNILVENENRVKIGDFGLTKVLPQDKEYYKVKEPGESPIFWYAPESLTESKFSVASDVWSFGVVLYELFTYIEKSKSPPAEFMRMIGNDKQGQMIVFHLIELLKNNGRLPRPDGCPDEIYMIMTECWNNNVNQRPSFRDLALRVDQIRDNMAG

Regarding `C[C@@H]1CCN(C(=O)CC#N)C[C@@H]1N(C)c1ncnc2[nH]ccc12` [CP-690,550], the “efficacy in an animal model of organ transplantation” value in test [1] is “show efficacy”.

Turning to `COc1cc2ncnc(Nc3ccc(O)cc3)c2cc1OC` [JANEX-1], the “spontaneous autoimmune diabetes development” value in test [2] is recorded as “prevent spontaneous autoimmune diabetes development”. The “severity of GVHD” value in test [3] was “attenuate the severity of GVHD”.

Take `C[C@H]1CCCC[C@@H]1n1ncc2cnc(Nc3cnn(CCO)c3)nc21` (racemic) [Example 50, Rac-trans-2-(4-((1-(2-methylcyclohexyl)-1H-pyrazolo[3,4-d]pyrimidin-6-yl)amino)-1H-pyrazol-1-yl)ethanol]: the IC50 on JAK2 was 1000 to 10000 nM; at JAK3, below 100 nM.

Consider `Cn1cc(Nc2ncc3cnn(CC4CCNC4)c3n2)cn1` (stereo not drawn) [Example 40, N-(1-methyl-1H-pyrazol-4-yl)-1-(pyrrolidin-3-ylmethyl)-1H-pyrazolo[3,4-d]pyrimidin-6-amine], for which the IC50 is 1000 to 10000 nM on JAK2 and 100 to 1000 nM at JAK3.

Take `Cn1cc(Nc2ncc3cnn(CC4CCCN(CCCS(C)(=O)=O)C4)c3n2)cn1` (stereo not drawn) [Example 62, N-(1-methyl-1H-pyrazol-4-yl)-1-((1-(3-(methylsulfonyl)propyl)piperidin-3-yl)methyl)-1H-pyrazolo[3,4-d]pyrimidin-6-amine]: the IC50 on JAK2 is 1000 to 10000 nM; on JAK3 it was below 100 nM.

Turning to `CCC(C1CCCCC1)n1ncc2cnc(Nc3cnn(C)c3)nc21` (stereo not drawn) [Example 18, 1-(1-Cyclohexylpropyl)-N-(1-methyl-M-pyrazol-4-yl)-1H-pyrazolo[3,4-c]pyrimidin-6-amine], the IC50 is above 10000 nM at JAK2 and 100 to 1000 nM on JAK3.

As to `Cn1cc(Nc2ncc3cnn(CC4CCCN(C(=O)OCCF)C4)c3n2)cn1` (stereo not drawn) [Example 44, 2-fluoroethyl 3-((6-((1-methyl-1H-pyrazol-4-yl)amino)-1H-pyrazolo[3,4-d]pyrimidin-1-yl)methyl)piperidine-1-carboxylate], the values for the IC50 at JAK2 and at JAK3 were above 10000 nM and 100 to 1000 nM, respectively.

As to `Cn1cc(Nc2ncc3cnn(CC4CCCN(CC(F)F)C4)c3n2)cn1` (stereo not drawn) [Example 67, 1-((1-(2,2-difluoroethyl)piperidin-3-yl)methyl)-N-(1-methyl-1H-pyrazol-4-yl)-1H-pyrazolo[3,4-d]pyrimidin-6-amine], the IC50 was 1000 to 10000 nM on JAK2 and below 100 nM on JAK3.
